Data from the NIST ThermoML archive (doi:10.1016/j.jct.2011.08.016).

Experiment: xn = mol fraction of the nth substance listed
Details: Liquid, Vibrating tube method

CCCCCCCCCC [decane] + CCCCCCC
Details | mass density [kg/m3]
333.12 K, 4000 kPa, x2 = 0.0531 | 701.18
333.12 K, 4000 kPa, x2 = 0.777 | 668.42
333.12 K, 5000 kPa, x2 = 0.0531 | 702.16
333.12 K, 5000 kPa, x2 = 0.777 | 669.49
333.12 K, 6000 kPa, x2 = 0.0531 | 703.1
333.12 K, 6000 kPa, x2 = 0.777 | 670.55
333.12 K, 7000 kPa, x2 = 0.0531 | 704.05
333.12 K, 7000 kPa, x2 = 0.777 | 671.62
333.12 K, 8000 kPa, x2 = 0.0531 | 704.99
333.12 K, 8000 kPa, x2 = 0.777 | 672.68
333.12 K, 9000 kPa, x2 = 0.0531 | 705.9
333.12 K, 9000 kPa, x2 = 0.777 | 673.73
333.12 K, 10000 kPa, x2 = 0.0531 | 706.8
333.12 K, 10000 kPa, x2 = 0.777 | 674.77
333.12 K, 10990 kPa, x2 = 0.0531 | 707.69
333.12 K, 10990 kPa, x2 = 0.777 | 675.8
333.12 K, 12000 kPa, x2 = 0.0531 | 708.56
333.12 K, 12000 kPa, x2 = 0.777 | 676.81
333.12 K, 13000 kPa, x2 = 0.0531 | 709.43
333.12 K, 13000 kPa, x2 = 0.777 | 677.81
333.12 K, 14000 kPa, x2 = 0.0531 | 710.28
333.12 K, 14000 kPa, x2 = 0.777 | 678.79
333.12 K, 15000 kPa, x2 = 0.0531 | 711.14
333.12 K, 15000 kPa, x2 = 0.777 | 679.76
333.12 K, 16000 kPa, x2 = 0.0531 | 711.96
333.12 K, 16000 kPa, x2 = 0.777 | 680.71
333.12 K, 17000 kPa, x2 = 0.0531 | 712.79
333.12 K, 17000 kPa, x2 = 0.777 | 681.65
333.12 K, 18000 kPa, x2 = 0.0531 | 713.6
333.12 K, 18000 kPa, x2 = 0.777 | 682.58
333.12 K, 19000 kPa, x2 = 0.0531 | 714.39
333.12 K, 19000 kPa, x2 = 0.777 | 683.49
333.12 K, 20000 kPa, x2 = 0.0531 | 715.18
333.12 K, 20000 kPa, x2 = 0.777 | 684.39
333.12 K, 21000 kPa, x2 = 0.0531 | 715.96
333.12 K, 21000 kPa, x2 = 0.777 | 685.27
333.12 K, 22000 kPa, x2 = 0.0531 | 716.72
333.12 K, 22000 kPa, x2 = 0.777 | 686.1
333.12 K, 23000 kPa, x2 = 0.0531 | 717.46
333.12 K, 23000 kPa, x2 = 0.777 | 686.9
333.12 K, 24000 kPa, x2 = 0.0531 | 718.21
333.12 K, 24000 kPa, x2 = 0.777 | 687.68
333.12 K, 25000 kPa, x2 = 0.0531 | 718.95
333.12 K, 25000 kPa, x2 = 0.777 | 688.47
333.13 K, 1000 kPa, x2 = 0.952 | 653.95
333.13 K, 2000 kPa, x2 = 0.952 | 655.14
333.13 K, 3000 kPa, x2 = 0.952 | 656.33
333.13 K, 4000 kPa, x2 = 0.952 | 657.51
333.13 K, 5000 kPa, x2 = 0.952 | 658.67
333.13 K, 6000 kPa, x2 = 0.952 | 659.82
333.13 K, 7000 kPa, x2 = 0.952 | 660.95
333.13 K, 8000 kPa, x2 = 0.952 | 662.06
333.13 K, 9000 kPa, x2 = 0.952 | 663.16
333.13 K, 10000 kPa, x2 = 0.952 | 664.24
333.13 K, 10990 kPa, x2 = 0.952 | 665.3
333.13 K, 12000 kPa, x2 = 0.952 | 666.34
333.13 K, 13000 kPa, x2 = 0.952 | 667.37
333.13 K, 14000 kPa, x2 = 0.952 | 668.38
333.13 K, 15000 kPa, x2 = 0.952 | 669.39
333.13 K, 16000 kPa, x2 = 0.952 | 670.37
333.13 K, 17000 kPa, x2 = 0.952 | 671.33
333.13 K, 18000 kPa, x2 = 0.952 | 672.29
333.13 K, 19000 kPa, x2 = 0.952 | 673.23
333.13 K, 20000 kPa, x2 = 0.952 | 674.14
333.13 K, 21000 kPa, x2 = 0.952 | 675.04
333.13 K, 22000 kPa, x2 = 0.952 | 675.93
333.13 K, 23000 kPa, x2 = 0.952 | 676.79
333.13 K, 24000 kPa, x2 = 0.952 | 677.64
333.13 K, 25000 kPa, x2 = 0.952 | 678.45
333.14 K, 1000 kPa, x2 = 0.2594 | 690.74
333.14 K, 2000 kPa, x2 = 0.2594 | 691.66
333.14 K, 3000 kPa, x2 = 0.2594 | 692.62
333.14 K, 4000 kPa, x2 = 0.2594 | 693.57
333.14 K, 5000 kPa, x2 = 0.2594 | 694.49
333.14 K, 6000 kPa, x2 = 0.2594 | 695.43
333.14 K, 7000 kPa, x2 = 0.2594 | 696.4
333.14 K, 8000 kPa, x2 = 0.2594 | 697.34
333.14 K, 9000 kPa, x2 = 0.2594 | 698.3
333.14 K, 10000 kPa, x2 = 0.2594 | 699.23
333.14 K, 10990 kPa, x2 = 0.2594 | 700.16
333.14 K, 12000 kPa, x2 = 0.2594 | 701.08
333.14 K, 13000 kPa, x2 = 0.2594 | 701.98
333.14 K, 14000 kPa, x2 = 0.2594 | 702.87
333.14 K, 15000 kPa, x2 = 0.2594 | 703.75
333.14 K, 16000 kPa, x2 = 0.2594 | 704.61
333.14 K, 17000 kPa, x2 = 0.2594 | 705.47
333.14 K, 18000 kPa, x2 = 0.2594 | 706.33
333.14 K, 19000 kPa, x2 = 0.2594 | 707.13
333.14 K, 20000 kPa, x2 = 0.2594 | 707.94
333.14 K, 21000 kPa, x2 = 0.2594 | 708.75
333.14 K, 22000 kPa, x2 = 0.2594 | 709.53
333.14 K, 23000 kPa, x2 = 0.2594 | 710.3
333.14 K, 24000 kPa, x2 = 0.2594 | 711.03
333.14 K, 25000 kPa, x2 = 0.2594 | 711.74
